Data reported in patent US20100075343A1, “NOVEL PEPTIDES” (priority 2007, published 2010).
“Also recorded” adds a separate entry of the source.

How the values were obtained:
[1] = system: pituitary cells of the apoaequorin-expressing mice; test: Intracellular calcium ion increase (aequorin luminescence), pituitary gland; format: cell-based, mouse; conditions: for increase of intracellular calcium concentration in pituitary cells (RLU per second): added at 25 seconds; for luminescence (intracellular calcium ion increase) in pituitary gland: peptide at final concentrations of 1 μmol/L and 5 μmol/L
Description: (§1) A hypothalamus, pituitary gland, kidney, heart, blood vessel, or a portion of brain tissue is collected from transgenic mice systemically expressing apoaequorin (WO02/010371) produced by introducing an apoaequorin gene expression vector into fertilized eggs. The obtained hypothalamus, pituitary gland, kidney, heart, blood vessel, or brain tissue is cut finely into pieces, suspended in a medium containing coelenterazine, and then incubated to incorporate coelenterazine into the cells to form aequorin (a complex of apoaequorin and coelenterazine). Since aequorin luminesces upon binding to intracellular calcium ions, the relative luminescence level in cells before and after addition of a medium containing the peptide or a pharmaceutically acceptable salt thereof is measured in a luminometer every second over time and is used as an indicator of intracellular calcium ion concentration. Increase in the relative luminescence level due to addition of the peptide or pharmaceutically acceptable salt thereof confirms that the peptide or pharmaceutically acceptable salt thereof has the activity to increase intracellular calcium ion concentration.
(§2) Whether Peptides 1 to 8 synthesized in Example 2 have the activity of increasing intracellular calcium ion concentration was investigated using the organs of transgenic mice introduced with the apoaequorin gene and systemically expressing apoaequorin (hereinafter referred to as apoaequorin-expressing mice). In apoaequorin-expressing mouse cells, light is emitted when apoaequorin binds to a calcium ion in the presence of the luminescent substrate coelenterazine and thus the intracellular calcium ion concentration can be monitored. Patent Document (WO02/010371) discloses the method for producing apoaequorin-expressing mice, method for evaluating biologically active substances that use biological samples derived from the mice, and experimental results of evaluating biologically active peptides using the mouse organs as shown below. […] Therefore, apoaequorin-expressing mice can be used in the evaluation of the physiological activities of novel peptides.
(§3) Apoaequorin-expressing mice were produced according to the method disclosed in Reference Example 4 of Patent Document (WO02/010371). The apoaequorin-expressing mice were sacrificed, individual organs including thymus, hypothalamus, spleen, bone, aorta, heart, kidney, adrenal gland, pancreas, pituitary gland, uterus, medulla oblongata, and spinal cord were removed; and each of the organs was cut into small cubes of approximately 1 to 2 mm^3. Next, in 5-mL tubes (Rohren-Tubes; manufactured by Sarstedt, No. 55.476), three portions of each of the prepared organs were added to 50 μL of a 10 μmol/L solution of coelenterazine (manufactured by Molecular Probes) dissolved in RPMI 1640 medium, and these were cultured at 37° C. for three hours. After culturing, RPMI 1640 medium was added, and then Peptides 1 to 5 dissolved in RPMI 1640 medium were added 25 seconds after the addition of RPMI 1640 until each peptide had final concentrations of 1 μmol/L and of 5 μmol/L, and the relative luminescence levels were measured every second immediately after the addition of RPMI 1640 medium by using a luminometer (AutoLumat LB953, manufactured by Berthold).

[2] = system: spleen of apoaequorin-expressing mice; test: Intracellular calcium ion increase (aequorin luminescence), spleen; format: cell-based, mouse; conditions: peptide at final concentrations of 1 μmol/L and 5 μmol/L
Description: as §1, §2
(§4) Apoaequorin-expressing mice were produced according to the method disclosed in Reference Example 4 of Patent Document (WO02/010371). […] After culturing, RPMI 1640 medium was added, and then Peptides 1 to 5 dissolved in RPMI 1640 medium were added 25 seconds after the addition of RPMI 1640 until each peptide had final concentrations of 1 μmol/L and of 5 μmol/L, and the relative luminescence levels were measured every second immediately after the addition of RPMI 1640 medium by using a luminometer (AutoLumat LB953, manufactured by Berthold).

[3] = system: hypothalamic cells of the apoaequorin-expressing mice; test: Intracellular calcium ion increase (aequorin luminescence), hypothalamus; format: cell-based, mouse; conditions: for increase of intracellular calcium concentration in hypothalamic cells (RLU per second): 1 μmol/L peptide, added at 25 seconds; for luminescence (intracellular calcium ion increase) in hypothalamus: peptide at final concentrations of 1 μmol/L and 5 μmol/L
Description: as §1, §2, §3

[4] = system: aortic cells of the apoaequorin-expressing mice; test: Intracellular calcium ion increase (aequorin luminescence), aorta; format: cell-based, mouse
Description: as §1, §2, §4

[5] = system: cardiac cells of the apoaequorin-expressing mice; test: Intracellular calcium ion increase (aequorin luminescence), heart; format: cell-based, mouse
Description: as §1, §2, §3

[6] = system: nerve endings in the posterior pituitary gland of AVP-eGFP Tg rats; test: Continuous measurement of AVP-eGFP fluorescence in rat posterior pituitary gland (vasopressin release); format: cell-based; conditions: peptide at final concentration of 10^−6 M in perfusate, last five minutes; control (basal) taken as 1
Source text: In transgenic (Tg) rats produced using a fusion gene, which is a vasopressin (arginine vasopressin: AVP) gene inserted with the enhanced green fluorescent protein (eGFP) gene, eGFP is expressed specifically in AVP neurons of the hypothalamus-pituitary system and their axons (Ueta et al., Endocrinology, 146, 406-413, 2005). Vasopressin secretion-promoting activity can be measured using pituitary gland excised from such AVP-eGFP Tg rats.
The pituitary gland is excised from an AVP-eGFP Tg rat and placed in a chamber of a perfusion apparatus filled with perfusate (140 mM NaCl, 5 mM KCl, 10 mM HEPES, 10 mM glucose, 1.2 mM KH2PO4, 1.2 mM MgCl2, 2 mM CaCl2; the pH and osmotic pressure are adjusted to 7.37 and 295 to 300 mOsml, respectively). Laser beam (488 nm) from an excitation light irradiation device (^161C; manufactured by Spectra Physics), is irradiated onto the posterior pituitary gland through an optical fiber (GIF625-100; manufactured by Thorlabs). The eGFP fluorescent light as a result of excitation at nerve endings in the posterior pituitary gland is collected by a phototube (R6249HA; Hamamatsu Photonics) through another optical fiber. After conversion into an electric signal, it can be amplified with an amplifier (C7246; manufactured by Hamamatsu Photonics) to observe the change in the eGFP fluorescence. The amount of change serves as an indicator for the amount of change of AVP-eGFP present in the pituitary gland, and the vasopressin secretion-promoting activity of the VGF-related peptide or a pharmaceutically acceptable salt thereof can be measured.
Specifically, the recording time is set to 10 minutes. As a control (basal), only the perfusate is administered in the first five minutes. Then, a mixture of the perfusate and the VGF-related peptide or a pharmaceutically acceptable salt thereof prepared to have a final concentration of 10^−6 M is administered in the last five minutes. The amount of vasopressin secreted from the pituitary gland can be measured by observing changes in the eGFP fluorescence. […]

[7] = system: pancreatic cells of the apoaequorin-expressing mice; test: Intracellular calcium ion increase (aequorin luminescence), pancreas; format: cell-based, mouse; conditions: for luminescence (intracellular calcium ion increase) in pancreas: peptide at final concentrations of 1 μmol/L and 5 μmol/L
Description: as §1
Whether Peptides 1 to 8 synthesized in Example 2 have the activity of increasing intracellular calcium ion concentration was investigated using the organs of transgenic mice introduced with the apoaequorin gene and systemically expressing apoaequorin (hereinafter referred to as apoaequorin-expressing mice). In apoaequorin-expressing mouse cells, light is emitted when apoaequorin binds to a calcium ion in the presence of the luminescent substrate coelenterazine and thus the intracellular calcium ion concentration can be monitored. Patent Document (WO02/010371) discloses the method for producing apoaequorin-expressing mice, method for evaluating biologically active substances that use biological samples derived from the mice, and experimental results of evaluating biologically active peptides using the mouse organs as shown below. […]

[8] = system: thymus of apoaequorin-expressing mice; test: Intracellular calcium ion increase (aequorin luminescence), thymus; format: cell-based, mouse; conditions: peptide at final concentrations of 1 μmol/L and 5 μmol/L
Description: as §1, §2, §4

[9] = system: medulla oblongata of apoaequorin-expressing mice; test: Intracellular calcium ion increase (aequorin luminescence), medulla oblongata; format: cell-based, mouse; conditions: peptide at final concentrations of 1 μmol/L and 5 μmol/L
Description: as §1, §2, §3

[10] = 1 μmol/L peptide, added at 25 seconds
[11] = peptide at final concentrations of 1 μmol/L and 5 μmol/L

| Substance | increase of intracellular calcium concentration in pituitary cells (RLU per second) ([1]; 1 μmol/L peptide) | luminescence (intracellular calcium ion increase) in pituitary gland [1] | luminescence (intracellular calcium ion increase) in spleen [2] | increase of intracellular calcium concentration in hypothalamic cells (RLU per second) [3] | luminescence (intracellular calcium ion increase) in hypothalamus [3] | increase of intracellular calcium concentration in aortic cells (RLU per second) [4, 10] | luminescence (intracellular calcium ion increase) in aorta [4, 11] | increase of intracellular calcium concentration in cardiac cells (RLU per second) [5, 10] | luminescence (intracellular calcium ion increase) in heart [5, 11] | increase of intracellular calcium concentration in pituitary cells (RLU per second) ([1]; 5 μmol/L peptide) | vasopressin release from nerve endings in the posterior pituitary gland (change in eGFP fluorescence) [6] | increase of intracellular calcium concentration in pancreatic cells (RLU per second) ([7]; 5 μmol/L peptide, added at 25 seconds) | luminescence (intracellular calcium ion increase) in pancreas [7] | luminescence (intracellular calcium ion increase) in thymus [8] | luminescence (intracellular calcium ion increase) in medulla oblongata [9] |
| --- | --- | --- | --- | --- | --- | --- | --- | --- | --- | --- | --- | --- | --- | --- | --- |
| Peptide 7: amino acid sequence at position 400 to 417 in human VGF (QNALLFAEEEDGEAGAED; synthetic Peptide 7, VGF-related peptide, human VGF positions 400-417) | increase of intracellular calcium concentration | luminescence was observed | luminescence was observed | increase of intracellular calcium concentration | luminescence was observed | increase of intracellular calcium concentration | luminescence was observed | increase of intracellular calcium concentration | luminescence was observed |  |  |  |  |  |  |
| Peptide 11: amino acid sequence at position 533 to 552 in human VGF (EEDEVYPPGPYHPFPNYIRP; synthetic Peptide 11, VGF-related peptide, human VGF positions 533-552) |  | luminescence was observed |  | increase of intracellular calcium concentration | luminescence was observed |  |  |  |  | increase of intracellular calcium concentration | reduced eGFP fluorescence; also recorded: vasopressin release |  |  |  |  |
| Peptide 12: amino acid sequence at position 556 to 585 in rat VGF (TLQPPASSRRRHFHHALPPARHHPDLEAQA; synthetic Peptide 12, VGF-related peptide, rat VGF positions 556-585) |  | luminescence was observed |  |  |  |  |  |  |  | increase of intracellular calcium concentration | reduced eGFP fluorescence; also recorded: vasopressin release |  |  |  |  |
| Peptide 10: amino acid sequence at position 485 to 503 in human VGF (NAPPEPVPPPRAAPAPTHV; synthetic Peptide 10, VGF-related peptide, human VGF positions 485-503) | increase of intracellular calcium concentration | luminescence was observed |  | increase of intracellular calcium concentration | luminescence was observed |  |  |  |  |  |  | increase of intracellular calcium concentration | luminescence was observed |  |  |
| Peptide 1: amino acid sequence at position 177 to 206 in human VGF (QQETAAAETETRTHTLTRVNLESPGPERVW; synthetic Peptide 1, VGF-related peptide, human VGF positions 177-206) |  | luminescence was observed |  | increase of intracellular calcium concentration | luminescence was observed |  |  |  |  | increase of intracellular calcium concentration | reduced eGFP fluorescence; also recorded: vasopressin release |  |  | luminescence was observed | luminescence was observed |
| Peptide 4: amino acid sequence at position 533 to 543 in human VGF (EEDEVYPPGPY; synthetic Peptide 4, VGF-related peptide, human VGF positions 533-543) | increase of intracellular calcium concentration | luminescence was observed |  | increase of intracellular calcium concentration | luminescence was observed |  |  |  |  |  |  |  | luminescence was observed |  |  |
